Where a name gives a salt, the structure may show the parent alone.
Key:
[1] = system: Jcl:SD male rats; assay: Effect on serum cholesterol level in rat; format: in vivo; details: for Blood cholesterol: oral once a day for 4 days; for Blood cholesterol lowering action: summary of Table 6(1) and 6(2)
Protocol: A test compound was dissolved in 10% aqueous cyclodextrin solution, and orally administrated to 7-week-old Jcl:SD male rats (manufactured by CLEA Japan, Inc.) once a day for 4 consecutive days. The blood was drawn on the next day of the final administration, and plasma cholesterol was measured using a measurement kit (cholesterol CII-testwako, manufactured by Wako Pure Chemical Industries, Ltd.).

[2] = system: ovariectomized rats; assay: Effects on climacteric syndrome (hot flash-like symptom): tail skin temperature of ovariectomized rats; format: in vivo, rat; details: for Effect on the action of β-estradiol on the tissues involved in the hot flash-like symptom: combined use, summary of Table 3; for Effect on hot flash-like symptom: summary of Table 2
Protocol: The effect of the compound of the present invention on climacteric syndrome was investigated using ovariectomized rats. The ovariectomized rats were prepared by removing the ovary on the both sides from 8-week-old Jcl:SD female rats (manufactured by CLEA Japan, Inc.) under ether anesthesia. The rats were bred under the conditions of illumination for 12 hours (6:00-18:00) every day, room temperature 24±0.5° C., and were allowed free intake of solid feed (CE-2, manufactured by CLEA Japan, Inc.) and water. The rats after 2 weeks of ovariectomy were subjected to the following experiment. The rats to be used for sham surgery group were treated in the same manner except ovariectomy.
The rats after 2 weeks of ovariectomy and sham surgery were subjected to the measurement of tail skin temperature by reference to the method of Hosono et al. (Am. J. Physiol. Regulatory Integrative Comp. Physiol. 280: R1341-R1347, 2001) without anesthesia. To be specific, a temperature sensor (SXK-67, manufactured by TAKARA THERMISTOR) was fixed at 5 cm from the base of the tail of the rats with an adhesive plaster (manufactured by NICHIBAN), and covered with an aluminum plate. The other end of the temperature sensor was connected to a fluclet (manufactured by DAINIPPON PHARMACEUTICAL CO., LTD.) via an amplifier (E332, manufactured by TAKARA THERMISTOR) and measurement and analysis were performed for 2 hr. The results are shown in Table 1, wherein an incidence of a hot flash-like symptom was confirmed at the tail of the ovariectomized rats.
A test compound was dissolved in a solvent (10% aqueous cyclodextrin solution), and orally administered to ovariectomized rats once a day for two consecutive weeks. The tail skin temperature was measured in the same manner as in the aforementioned method on the day of the final administration.

[3] = system: ovariectomized rats; assay: Luteinizing hormone (LH) level in serum of ovariectomized rats; format: in vivo; details: ovariectomized rat; for Serum LH: oral once a day for two weeks
Protocol: (§1) A test compound was dissolved in 10% aqueous cyclodextrin solution and orally administered to ovariectomized rats once a day for two consecutive weeks. The blood was drawn under ether anesthesia. The blood sample was allowed to coagulate at room temperature for 1 hr and centrifuged at 3000 rpm for 10 min to give serum. The amount of LH in serum was measured using a rat LH radioimmunoassay kit (manufactured by Immunotec Research Ltd., France).

[4] = system: ovariectomized rats; assay: Effect on decreased femur bone density of ovariectomized rat (pQCT); format: in vivo; details: for Bone density: femural metaphysis, oral once a day for 4 weeks; for Effect on decrease in the bone density due to ovariectomy: summary of Table 5(1) and 5(2)
From the text: The ovary on the both sides of 13-week-old Jcl:SD female rats (manufactured by CLEA Japan, Inc.) were removed under ether anesthesia or the rats were subjected to a sham surgery, and a test compound dissolved in 10% aqueous cyclodextrin solution was orally administrated from the next day once a day for 4 consecutive weeks (10 rats/group). The rats were sacrificed by hemorrhage on the next day of the final administration and the left femur was removed. The bone density of the femural metaphysis was measured using pQCT [peripheral Quantitative Computed Tomography, XCT-960A, manufactured by Norland-Stratec].

[5] = system: ovariectomized rats; assay: Uterus weight of ovariectomized rat (side effects); format: in vivo; details: for Uterus weight: ovariectomized rat
Protocol: as §1
To investigate the side effects of the compound of the present invention, the test compound was orally administered consecutively to ovariectomized rats and sham surgery rats in the same manner as in Experimental Example 1b, the uterus was removed and weighed.

[6] = Table 2, oral once a day for two weeks, dose 10.0 mg/kg
[7] = Table 7, oral once a day for two weeks, dose 1.0 mg/kg
[8] = Table 2, oral once a day for two weeks, dose 0.1 mg/kg
[9] = Table 2, oral once a day for two weeks, dose 1.0 mg/kg

SMILES	Blood cholesterol lowering action [1]	Average tail skin temperature [2, 6] [°C]	Bone density ([4]; Table 5(1), dose 1.0 mg/kg) [mg/mL]	Blood cholesterol ([1]; Table 6(1), dose 0.3 mg/kg) [mg/dL]	Uterus weight [5, 7] [mg]	Average tail skin temperature [2, 8] [°C]	Average tail skin temperature [2, 9] [°C]	Effect on the action of β-estradiol on the tissues involved in the hot flash-like symptom [2]	Effect on hot flash-like symptom [2]	Effect on decrease in the bone density due to ovariectomy [4]	further results
CC(C)CN1CCC(c2ccc(C3=CC4(CCc5cc(O)ccc54)c4ccc(O)cc43)cc2)CC1 (stereo not shown) [Example 30, 3-[4-(1-isobutyl-4-piperidinyl)phenyl]spiro[indene-1,1′-indan]-5,5′-diol hydrochloride]	significant blood cholesterol lowering action at a lower dose than β-estradiol	–	–	–	–	–	–	–	–	–	Blood cholesterol ([1]; Table 6(2), dose 1.0 mg/kg): 23.6 ± 2.2 mg/dL
C[C@]12CC[C@@H]3c4ccc(O)cc4CC[C@H]3[C@@H]1CC[C@@H]2O [β-estradiol, reference compound]	–	27.7 ± 0.2	767.3 ± 63.9	62.7 ± 7.5	406.3 ± 20.6	–	–	–	–	–	Average tail skin temperature ([2]; Table 2, oral once a day for two weeks, dose 3.0 mg/kg): 28.4 ± 0.6 °C; Average tail skin temperature ([2]; Table 3, oral once a day for two weeks, single use, dose 3.0 mg/kg): 28.1 ± 0.6 °C; Serum LH ([3]; dose 3.0 mg/kg): 7.6 ± 0.97 ng/mL; Blood cholesterol ([1]; Table 6(1), dose 1.0 mg/kg): 42.8 ± 6.1 mg/dL; Blood cholesterol ([1]; Table 6(1), dose 3.0 mg/kg): 25.8 ± 2.0 mg/dL; Uterus weight ([5]; Table 8, single administration, dose 3.0 mg/kg): 491.7 ± 19.6 mg
Oc1ccc2c(c1)CCC21C=C(c2ccc(OCCN3CCCCC3)cc2)c2cc(O)ccc21 (stereo not shown) [Example 1, 3-[4-(2-piperidinoethoxy)phenyl]spiro[indene-1,1′-indan]-5,5′-diol hydrochloride]	significant blood cholesterol lowering action at a lower dose than β-estradiol	28.0 ± 0.5	738.0 ± 47.9	41.6 ± 5.2	178.6 ± 9.3	29.4 ± 0.3	28.9 ± 0.4	did not inhibit the action of β-estradiol	improved the hot flash-like symptom	significantly suppressed the decrease in the bone density	Serum LH ([3]; dose 1.0 mg/kg): 10.1 ± 0.60 ng/mL; Effect on increase in the LH amount due to ovariectomy ([3]; summary of Table 4): significantly suppressed increase in the LH amount; Blood cholesterol ([1]; Table 6(1), dose 0.03 mg/kg): 63.1 ± 4.8 mg/dL; Blood cholesterol ([1]; Table 6(1), dose 0.1 mg/kg): 53.8 ± 7.3 mg/dL; Effect on uterus weight of ovariectomized rat ([5]; summary of Table 7): does not significantly increase the uterus weight; Effect on the uterus weight increasing action of β-estradiol ([5]; summary of Table 8): significantly suppressed the uterus weight increasing action of β-estradiol
Cl.Oc1ccc2c(c1)CCC21C=C(c2ccc(OCCN3CCCCC3)cc2)c2cc(O)ccc21 (single isomer, unassigned; (+)) [Example 37, (+)-3-[4-(2-piperidinoethoxy)phenyl]spiro[indene-1,1′-indan]-5,5′-diol hydrochloride]	–	–	–	–	–	–	–	–	–	significantly suppressed the decrease in the bone density	Bone density ([4]; Table 5(2), dose 0.01 mg/kg): 551 ± 10 mg/mL; Bone density ([4]; Table 5(2), dose 0.1 mg/kg): 620 ± 15 mg/mL; Bone density ([4]; Table 5(2), dose 1.0 mg/kg): 658 ± 17 mg/mL
Cl.Oc1ccc2c(c1)CC[C@@]21C[C@@H](c2ccc(OCCN3CCCCC3)cc2)c2cc(O)ccc21 (relative stereo) [Example 36A, (1R*,3S*)-3-[4-(2-piperidinoethoxy)phenyl]-1,1′-spirobiindan-5,5′-diol hydrochloride]	–	29.0 ± 0.4	–	–	–	29.9 ± 0.4	29.4 ± 0.4	did not inhibit the action of β-estradiol	improved the hot flash-like symptom	–	–
